One experiment has as its system HepG2 cells. As to the kind of experiment: CellTiter-Glo Luminescent Cell Viability Assay, HepG2. The note with it: HepG2 cells, 48 h, mean of three independent experiments. The experiment is classed as cell-based, human. How it is done: (§1) The in vitro anti-proliferative activities of all the novel synthesized compounds were evaluated against HepG2 cells and MCF-7 cells by CellTiter-Glo® Luminescent Cell Viability Assay, using paclitaxel (a clinically used drug) as a positive control. Emodin (1) and compound 2 were also included for comparison.
(§2) HepG2 cells and MCF-7 cells were purchased from American Type Culture Collection (ATCC, Manassas, VA, USA). Cells were cultured in T75 flask (430641, Corning, New York, NY, USA), supplemented with high-glucose DMEM medium (Dulbecco’s modified Eagle’s medium, 11965-092, Gibco, New York, NY, USA) containing 10% Fetal bovine serum (FBS) and 1% penicillin (100 units/mL)-streptomycin (100 µg/mL) in a humidified incubator at 37 °C under 5% CO2 and 95% relative humidity (RH) atmosphere. The cells were harvested for metabolomics experiments using cell scrapers.
(§3) HepG2 cells and MCF-7 cells in 40 µL DMEM supplemented with 10% FBS were seeded at a density of 500 cells/well in 384-well cell culture plate (3570, Corning), respectively. After 24 h, the medium was substituted with fresh medium containing various sample solutions in DMSO (0.5%, v/v) at a dose range of 0.14–100 µM with 3-fold serial dilutions, and cells were cultured for another 48 h. Cells were cultured in medium without samples but 0.5% DMSO served as a control. All measurements were determined in triplicate for each treatment. After the sample treatment for 48 h, 20 µL CellTiter-Glo (G7573, Promega, Fitchburg, WI, USA) was added to each well containing cells and the contents were mixed for 2 min on an orbital shaker to induce cell lysis. The plates were then incubated at room temperature for 20 min to stabilize the luminescent signal. The luminescence was recorded on an Envision 2014 (Perkin Elmer, Waltham, MA, UAS). The IC50 values represented the samples’ concentrations required to inhibit 50% of cell proliferation and were calculated from a calibration curve by linear regression using GraphPad Prism 7.0 software (GraphPad Software, San Diego, CA, USA).
(In general: Cellular ATP, detected with luciferase, serves as a proxy for viable cell number.)

A further experiment deals with MCF-7 cells. As to the kind of experiment: CellTiter-Glo Luminescent Cell Viability Assay, MCF-7. Conditions: MCF-7 cells, 48 h, mean of three independent experiments. The format is cell-based, human. The method, then:
as §1, §2, §3

By IC50 is commonly meant the concentration that inhibits the measured activity by half. The low end stands for greater potency in that assay, the high end for weaker potency in that assay.

With `Cc1cc(O)c2c(c1)C(=O)c1cc(OCCO)cc(O)c1C2=O` [Compound 2, 1,8-Dihydroxy-3-(2-hydroxyethoxy)-6-methylanthracene-9,10-dione], the half-maximal inhibitory concentration (IC50) in the experiment on HepG2 cells (Homo sapiens, HepG2, 48 h) worked out at 64.1 ± 2.37 µM; in the experiment with MCF-7 cells (Homo sapiens, MCF7, 48 h), 86.4 ± 3.98 µM.

As for `Cc1cc(O)c2c(c1)C(=O)c1cc(OCCOC(=O)CN)cc(O)c1C2=O` [Compound 3a, 2-(2-(4,5-Dihydroxy-7-methyl-9,10-dioxo-9,10-dihydroanthracen-2-yloxy)ethoxy)-2-oxoethanaminium 2,2,2-trifluoroacetate], the IC50 was found to be 22.7 ± 0.78 µM in the experiment with HepG2 cells (Homo sapiens, HepG2, 48 h) and 66.9 ± 1.65 µM in the experiment on MCF-7 cells (Homo sapiens, MCF7, 48 h).

`Cc1cc(O)c2c(c1)C(=O)c1cc(OCCOC(=O)[C@@H](N)CO)cc(O)c1C2=O` [Compound 3d, (S)-1-(2-(4,5-Dihydroxy-7-methyl-9,10-dioxo-9,10-dihydroanthracen-2-yloxy)ethoxy)-3-hydroxy-1-oxopropan-2-aminium 2,2,2-trifluoroacetate]: the 50% inhibitory concentration (IC50) in the experiment on HepG2 cells (Homo sapiens, HepG2, 48 h) was determined as 12 ± 1.19 µM; in the experiment on MCF-7 cells (Homo sapiens, MCF7, 48 h), 34 ± 1.98 µM.

With `Cc1cc(O)c2c(c1)C(=O)c1cc(OCCOC(=O)[C@H](N)C(C)C)cc(O)c1C2=O` [Compound 3e, (R)-1-(2-(4,5-Dihydroxy-7-methyl-9,10-dioxo-9,10-dihydroanthracen-2-yloxy)ethoxy)-3-methyl-1-oxobutan-2-aminium 2,2,2-trifluoroacetate], the IC50 in the experiment with HepG2 cells (Homo sapiens, HepG2, 48 h) amounted to 14.4 ± 1.09 µM; in the experiment with MCF-7 cells (Homo sapiens, MCF7, 48 h), 14.2 ± 0.23 µM.

`Cc1cc(O)c2c(c1)C(=O)c1cc(OCCOC(=O)[C@@H](N)C(C)C)cc(O)c1C2=O` [Compound 3f, (S)-1-(2-(4,5-Dihydroxy-7-methyl-9,10-dioxo-9,10-dihydroanthracen-2-yloxy)ethoxy)-3-methyl-1-oxobutan-2-aminium 2,2,2-trifluoroacetate]: the IC50 with HepG2 cells (Homo sapiens, HepG2, 48 h) was found to be 12.4 ± 0.35 µM; in the experiment on MCF-7 cells (Homo sapiens, MCF7, 48 h), 16 ± 0.51 µM.

For the compound `Cc1cc(O)c2c(c1)C(=O)c1cc(OCCOC(=O)[C@@H](N)CC(C)C)cc(O)c1C2=O` [Compound 3g, (S)-1-(2-(4,5-Dihydroxy-7-methyl-9,10-dioxo-9,10-dihydroanthracen-2-yloxy)ethoxy)-4-methyl-1-oxopentan-2-aminium 2,2,2-trifluoroacetate], the half-inhibitory concentration (IC50) is 15.9 ± 0.33 µM with HepG2 cells (Homo sapiens, HepG2, 48 h) and 16.1 ± 0.23 µM in the experiment on MCF-7 cells (Homo sapiens, MCF7, 48 h).

Take `CCC(C)[C@H](N)C(=O)OCCOc1cc(O)c2c(c1)C(=O)c1cc(C)cc(O)c1C2=O` (stereo partly drawn) [Compound 3h, (2S)-1-(2-(4,5-dihydroxy-7-methyl-9,10-dioxo-9,10-dihydroanthracen-2-yloxy)ethoxy)-3-methyl-1-oxo-pentan-2-aminium 2,2,2-trifluoroacetate]: the IC50 in the experiment with HepG2 cells (Homo sapiens, HepG2, 48 h) turned out to be 14.4 ± 0.27 µM; with MCF-7 cells (Homo sapiens, MCF7, 48 h) it was 12.8 ± 1.05 µM.

`CSCC[C@H](N)C(=O)OCCOc1cc(O)c2c(c1)C(=O)c1cc(C)cc(O)c1C2=O` [Compound 3i, (S)-1-(2-(4,5-Dihydroxy-7-methyl-9,10-dioxo-9,10-dihydroanthracen-2-yloxy)ethoxy)-4-(methylthio)-1-oxobutan-2-aminium 2,2,2-trifluoroacetate]: the IC50 with HepG2 cells (Homo sapiens, HepG2, 48 h) stood at 17.2 ± 0.2 µM; with MCF-7 cells (Homo sapiens, MCF7, 48 h), 17.2 ± 0.41 µM.

With `Cc1cc(O)c2c(c1)C(=O)c1cc(OCCOC(=O)C(C)(C)N)cc(O)c1C2=O` [Compound 3j, 1-(2-(4,5-Dihydroxy-7-methyl-9,10-dioxo-9,10-dihydroanthracen-2-yloxy)ethoxy)-2-methyl-1-oxopropan-2-aminium 2,2,2-trifluoroacetate], the IC50 in the experiment with HepG2 cells (Homo sapiens, HepG2, 48 h) came out at 25.8 ± 5.28 µM; in the experiment with MCF-7 cells (Homo sapiens, MCF7, 48 h), 29.8 ± 1.78 µM.

Regarding `Cc1cc(O)c2c(c1)C(=O)c1cc(OCCOC(=O)C3(N)CC3)cc(O)c1C2=O` [Compound 3k, 1-((2-(4,5-Dihydroxy-7-methyl-9,10-dioxo-9,10-dihydroanthracen-2-yloxy)ethoxy)carbonyl)cyclopropan-aminium 2,2,2-trifluoroacetate], the concentration for half-maximal inhibition (IC50) is 53.2 ± 8.7 µM in the experiment with HepG2 cells (Homo sapiens, HepG2, 48 h) and over 100 µM in the experiment with MCF-7 cells (Homo sapiens, MCF7, 48 h).

`Cc1cc(O)c2c(c1)C(=O)c1cc(OCCOC(=O)C3(N)CCC3)cc(O)c1C2=O` [Compound 3l, 1-((2-(4,5-Dihydroxy-7-methyl-9,10-dioxo-9,10-dihydroanthracen-2-yloxy)ethoxy)carbonyl)cyclobutan-aminium 2,2,2-trifluoroacetate]: the concentration for half-maximal inhibition (IC50) is 67.49 ± 0.56 µM in the experiment with HepG2 cells (Homo sapiens, HepG2, 48 h) and over 100 µM in the experiment with MCF-7 cells (Homo sapiens, MCF7, 48 h).

With `Cc1cc(O)c2c(c1)C(=O)c1cc(OCCOC(=O)C3(N)COC3)cc(O)c1C2=O` [Compound 3m, 3-((2-(4,5-Dihydroxy-7-methyl-9,10-dioxo-9,10-dihydroanthracen-2-yloxy)ethoxy)carbonyl)oxetan-3-aminium 2,2,2-trifluoroacetate], the IC50 in the experiment with HepG2 cells (Homo sapiens, HepG2, 48 h) is over 100 µM; in the experiment with MCF-7 cells (Homo sapiens, MCF7, 48 h), over 100 µM.

For the compound `Cc1cc(O)c2c(c1)C(=O)c1cc(OCCOC(=O)C3(N)CCCC3)cc(O)c1C2=O` [Compound 3n, 1-((2-(4,5-Dihydroxy-7-methyl-9,10-dioxo-9,10-dihydroanthracen-2-yloxy)ethoxy)carbonyl)cyclopentan-aminium 2,2,2-trifluoroacetate], the IC50 in the experiment on HepG2 cells came to 17.5 ± 0.59 µM; with HepG2 cells (Homo sapiens, HepG2, 48 h), 12.5 ± 0.59 µM; in the experiment with MCF-7 cells (Homo sapiens, MCF7, 48 h), 23.5 ± 1.93 µM; with MCF-7 cells, 18.5 ± 1.93 µM.

Take `Cc1cc(O)c2c(c1)C(=O)c1cc(OCCOC(=O)[C@H]3CCCN3)cc(O)c1C2=O` [Compound 3o, (R)-2-((2-(4,5-Dihydroxy-7-methyl-9,10-dioxo-9,10-dihydroanthracen-2-yloxy)ethoxy)carbonyl)-pyrrolidinium 2,2,2-trifluoroacetate]: the IC50 in the experiment with HepG2 cells (Homo sapiens, HepG2, 48 h) was 17.6 ± 0.43 µM; in the experiment with MCF-7 cells (Homo sapiens, MCF7, 48 h), 17.6 ± 0.29 µM.

Consider `Cc1cc(O)c2c(c1)C(=O)c1cc(OCCOC(=O)[C@@H]3CCCN3)cc(O)c1C2=O` [Compound 3p, (S)-2-((2-(4,5-Dihydroxy-7-methyl-9,10-dioxo-9,10-dihydroanthracen-2-yloxy)ethoxy)carbonyl)-pyrrolidinium 2,2,2-trifluoroacetate], for which the IC50 in the experiment with HepG2 cells (Homo sapiens, HepG2, 48 h) amounted to 19 ± 0.6 µM; in the experiment on MCF-7 cells (Homo sapiens, MCF7, 48 h) it was 20 ± 1.82 µM.

Consider `Cc1cc(O)c2c(c1)C(=O)c1cc(OCCOC(=O)[C@H](N)c3ccccc3)cc(O)c1C2=O` [Compound 3q, (R)-2-(2-(4,5-Dihydroxy-7-methyl-9,10-dioxo-9,10-dihydroanthracen-2-yloxy)ethoxy)-2-oxo-1-phenyl-ethanaminium 2,2,2-trifluoroacetate], for which the IC50 in the experiment with HepG2 cells (Homo sapiens, HepG2, 48 h) was 25.9 ± 0.48 µM; with MCF-7 cells (Homo sapiens, MCF7, 48 h), 28.5 ± 1.74 µM.

With `Cc1cc(O)c2c(c1)C(=O)c1cc(OCCOC(=O)[C@@H](N)c3ccccc3)cc(O)c1C2=O` [Compound 3r, (S)-2-(2-(4,5-Dihydroxy-7-methyl-9,10-dioxo-9,10-dihydroanthracen-2-yloxy)ethoxy)-2-oxo-1-phenyl-ethanaminium 2,2,2-trifluoroacetate], the IC50 came to 19.3 ± 1.08 µM in the experiment with HepG2 cells (Homo sapiens, HepG2, 48 h) and 25.7 ± 0.61 µM in the experiment with MCF-7 cells (Homo sapiens, MCF7, 48 h).

`Cc1cc(O)c2c(c1)C(=O)c1cc(OCCOC(=O)[C@H](N)c3ccc(O)cc3)cc(O)c1C2=O` [Compound 3s, (R)-2-(2-(4,5-Dihydroxy-7-methyl-9,10-dioxo-9,10-dihydroanthracen-2-yloxy)ethoxy)-1-(4-hydroxyphenyl)-2-oxoethanaminium 2,2,2-trifluoroacetate]: the concentration for half-maximal inhibition (IC50) came to 18.5 ± 0.55 µM in the experiment on HepG2 cells (Homo sapiens, HepG2, 48 h) and 25.9 ± 1.09 µM in the experiment on MCF-7 cells (Homo sapiens, MCF7, 48 h).

On to `Cc1cc(O)c2c(c1)C(=O)c1cc(OCCOC(=O)[C@@H](N)c3ccc(O)cc3)cc(O)c1C2=O` [Compound 3t, (S)-2-(2-(4,5-Dihydroxy-7-methyl-9,10-dioxo-9,10-dihydroanthracen-2-yloxy)ethoxy)-1-(4-hydroxyphenyl)-2-oxoethanaminium 2,2,2-trifluoroacetate], for which the IC50 in the experiment with HepG2 cells (Homo sapiens, HepG2, 48 h) was found to be 26.1 ± 1.44 µM; with MCF-7 cells (Homo sapiens, MCF7, 48 h) it was 39.6 ± 1.97 µM.

In the case of `Cc1cc(O)c2c(c1)C(=O)c1cc(OCCOC(=O)[C@H](N)c3ccc(F)cc3)cc(O)c1C2=O` [Compound 3u, (R)-2-(2-(4,5-Dihydroxy-7-methyl-9,10-dioxo-9,10-dihydroanthracen-2-yloxy)ethoxy)-1-(4-fluorophenyl)-2-oxoethanaminium 2,2,2-trifluoroacetate], the IC50 turned out to be 14.3 ± 1.04 µM with HepG2 cells (Homo sapiens, HepG2, 48 h) and 20.8 ± 0.32 µM with MCF-7 cells (Homo sapiens, MCF7, 48 h).

As to `Cc1cc(O)c2c(c1)C(=O)c1cc(OCCOC(=O)[C@@H](N)c3ccc(F)cc3)cc(O)c1C2=O` [Compound 3v, (S)-2-(2-(4,5-Dihydroxy-7-methyl-9,10-dioxo-9,10-dihydroanthracen-2-yloxy)ethoxy)-1-(4-fluorophenyl)-2-oxoethanaminium 2,2,2-trifluoroacetate], the concentration for half-maximal inhibition (IC50) amounted to 11.4 ± 0.77 µM in the experiment with HepG2 cells (Homo sapiens, HepG2, 48 h) and 22.6 ± 0.9 µM in the experiment on MCF-7 cells (Homo sapiens, MCF7, 48 h).

Regarding `Cc1cc(O)c2c(c1)C(=O)c1cc(OCCOC(=O)[C@H](N)Cc3ccccc3)cc(O)c1C2=O` [Compound 3w, (R)-1-(2-(4,5-Dihydroxy-7-methyl-9,10-dioxo-9,10-dihydroanthracen-2-yloxy)ethoxy)-1-oxo-3-phenyl-propan-2-aminium 2,2,2-trifluoroacetate], the IC50 was 31.5 ± 2.72 µM in the experiment on HepG2 cells (Homo sapiens, HepG2, 48 h) and 42.4 ± 1.16 µM with MCF-7 cells (Homo sapiens, MCF7, 48 h).

These data come from PMC6429262, “Design and Synthesis of Novel Anti-Proliferative Emodin Derivatives and Studies on their Cell Cycle Arrest, Apoptosis Pathway and Migration” (Molecules, 2019).
